The subject of assay [1] is Escherichia coli (E. coli) ATCC25922. The class given is cell-based. The protocol: (§1) A broth microdilution assay was performed to determine the minimum inhibitory concentration (MIC) for the oligoarginine peptides. Escherichia coli (E. coli) ATCC25922 and Staphylococcus aureus (S. aureus) ATCC6538 were used as model organisms for Gram-negative and Gram-positive bacteria, respectively. Both strains were cultured in LB broth for ∼18 h overnight at 37 °C and shaking set to 180 RPM. The culture was diluted to obtain a 0.01 optical density (OD) bacterial suspension in LB. Using a 96-well plate, oligoarginine concentrations ranging from 1 mM to 0.001 mM were obtained, and each peptide concentration was tested against both bacterial strains. The bacteria were incubated overnight at 37 °C for 18 h, and the lowest concentration of the treatment with no visible bacterial growth was recorded as the MIC of the respective oligoarginine treatment.

In assay [2] the test system is Staphylococcus aureus (S. aureus) ATCC6538. The assay is classed as cell-based. The protocol: as §1
[3] abbreviates: LB broth, 1 mM to 0.001 mM, 18 h at 37 °C, no visible growth, average ± SEM, n = 9.

SMILES strings stand for the structures. Where two headings read alike, the source gives them in different places. Peptide text beside a SMILES is read from it.

For the compound `N=C(N)NCCC[C@H](NC(=O)[C@H](CCCNC(=N)N)NC(=O)[C@@H](N)CCCNC(=N)N)C(=O)O` [R3] (H-Arg-Arg-Arg-OH), the “E. coli MIC” value in assay [1] (ATCC25922, 18 h) was greater than 1000 µM. In addition, the “S. aureus MIC” value in assay [2] (ATCC6538, 18 h) is greater than 1000 µM.
In the case of `N=C(N)NCCC[C@H](NC(=O)[C@H](CCCNC(=N)N)NC(=O)[C@H](CCCNC(=N)N)NC(=O)[C@H](CCCNC(=N)N)NC(=O)[C@H](CCCNC(=N)N)NC(=O)[C@@H](N)CCCNC(=N)N)C(=O)O` [R6], the “E. coli MIC” value in assay [1] (ATCC25922, 18 h) was greater than 1000 µM. Also, in assay [2] (ATCC6538, 18 h), the “S. aureus MIC” value was greater than 1000 µM.
Consider `N=C(N)NCCC[C@H](NC(=O)[C@H](CCCNC(=N)N)NC(=O)[C@H](CCCNC(=N)N)NC(=O)[C@H](CCCNC(=N)N)NC(=O)[C@H](CCCNC(=N)N)NC(=O)[C@H](CCCNC(=N)N)NC(=O)[C@H](CCCNC(=N)N)NC(=O)[C@H](CCCNC(=N)N)NC(=O)[C@@H](N)CCCNC(=N)N)C(=O)O` [R9], for which the “E. coli MIC” value in assay [1] (ATCC25922, 18 h) is greater than 1000 µM. Moreover, the “S. aureus MIC” value in assay [2] (ATCC6538, 18 h) is 1000 µM.
Consider `N=C(N)NCCC[C@H](NC(=O)[C@H](CCCNC(=N)N)NC(=O)[C@H](CCCNC(=N)N)NC(=O)[C@H](CCCNC(=N)N)NC(=O)[C@H](CCCNC(=N)N)NC(=O)[C@H](CCCNC(=N)N)NC(=O)[C@H](CCCNC(=N)N)NC(=O)[C@H](CCCNC(=N)N)NC(=O)[C@H](CCCNC(=N)N)NC(=O)[C@H](CCCNC(=N)N)NC(=O)[C@H](CCCNC(=N)N)NC(=O)[C@@H](N)CCCNC(=N)N)C(=O)O` [R12], for which, in assay [1] (setting [3]), the “E. coli MIC” value amounted to 940 ± 160 µM. Further, in assay [2] (setting [3]), the “S. aureus MIC” value was 610 ± 220 µM.

The values above are taken from article PMC11336422, “Oligoarginine peptide structure and its effect on cell penetration in ocular drug delivery” (Heliyon, 2024).
